According to patent US20220354863A1, “METHODS FOR THE PROPHYLACTIC TREATMENT OF CANCER IN PATIENTS SUFFERING FROM PANCREATITIS” (INSERM (INSTITUT NATIONAL DE LA SANTÈ ET DE LA RECHERCH …, priority 2019, published 2022):

Experiments:
[1] = tested on: caerulein-treated KC mice; assay: Caerulein-induced pancreatic injury in oncogenic Kras (KC) mice; type: in vivo; conditions: KrasG12D background, 10 mg/kg by gavage
Text: The LSL-Kras^G12D (from D Tuveson, Mouse Models of Human Cancers Consortium repository (NCI-Frederick, USA), Pdx1-cre (from DA Melton, Harvard University, Cambridge, Mass., USA), p110α^lox (from B. Vanhaesebroeck, UCL, London), strains were interbred on mixed background (CD1/C57B16) to obtain compound mutant Pdx1-Cre;LSL-Kras^G12D (named KC), pdx1-Cre;p110α^lox/lox (Pdx1-Cre;p110α^lox/lox were named α^inC; pdx1-Cre;LSL-Kras^G12D;p110α^lox/lox were named Kα^inC). Littermates not expressing Cre as well as Pdx1-Cre and p110α^lox/lox mice of the same age were used as control. All procedures and animal housing are conformed to the regulatory standards and were approved by the Ethical committee according to European legislation translated to French Law as Décret 2013-118 1 Feb. 2013 (APAFIS 3601-2015121622062840). Genotyping was performed as described: the genetically modified allele is called p110α^lox or p110α^ΔDFG (here named Rec) after Cre recombination. DFG is a conserved motif in the activation loop of the p110α kinase domain critical for its catalytic activity. The gene targeting strategy used is different from a traditional conditional knock-out strategy. […] Primers corresponds to post-cre primers used to verify the presence of recombined allele ΔDFG: ma9: -[…]; ma5: […]; annealing temperature: 65° C.; recombined ΔDFG-544 bp, wild type (+) or unrecombined lox- >10 kbp amplicon. Genotyping of tail or pancreas samples was performed after DNA extraction with Sigma kit (XNAT-100RXN).
Animals were euthanized 1, 3, 7 or 17 days later, and recombination verified before analysis as described in [44, 45].
Immunostainings were conducted using standard methods on formalin-fixed, paraffin-embedded tissues, including both mice and human pancreas.

p110β = p110β (Homo sapiens, UniProt P42338); conditions: read-out: in vitro IC50 β; cited from earlier work
p110δ = p110δ (Homo sapiens, UniProt O00329); conditions: read-out: in vitro IC50 δ; cited from earlier work
p110γ = p110γ (Homo sapiens, UniProt P48736); conditions: read-out: in vitro IC50 γ; cited from earlier work
p110γ, sequence (P48736 whole entry): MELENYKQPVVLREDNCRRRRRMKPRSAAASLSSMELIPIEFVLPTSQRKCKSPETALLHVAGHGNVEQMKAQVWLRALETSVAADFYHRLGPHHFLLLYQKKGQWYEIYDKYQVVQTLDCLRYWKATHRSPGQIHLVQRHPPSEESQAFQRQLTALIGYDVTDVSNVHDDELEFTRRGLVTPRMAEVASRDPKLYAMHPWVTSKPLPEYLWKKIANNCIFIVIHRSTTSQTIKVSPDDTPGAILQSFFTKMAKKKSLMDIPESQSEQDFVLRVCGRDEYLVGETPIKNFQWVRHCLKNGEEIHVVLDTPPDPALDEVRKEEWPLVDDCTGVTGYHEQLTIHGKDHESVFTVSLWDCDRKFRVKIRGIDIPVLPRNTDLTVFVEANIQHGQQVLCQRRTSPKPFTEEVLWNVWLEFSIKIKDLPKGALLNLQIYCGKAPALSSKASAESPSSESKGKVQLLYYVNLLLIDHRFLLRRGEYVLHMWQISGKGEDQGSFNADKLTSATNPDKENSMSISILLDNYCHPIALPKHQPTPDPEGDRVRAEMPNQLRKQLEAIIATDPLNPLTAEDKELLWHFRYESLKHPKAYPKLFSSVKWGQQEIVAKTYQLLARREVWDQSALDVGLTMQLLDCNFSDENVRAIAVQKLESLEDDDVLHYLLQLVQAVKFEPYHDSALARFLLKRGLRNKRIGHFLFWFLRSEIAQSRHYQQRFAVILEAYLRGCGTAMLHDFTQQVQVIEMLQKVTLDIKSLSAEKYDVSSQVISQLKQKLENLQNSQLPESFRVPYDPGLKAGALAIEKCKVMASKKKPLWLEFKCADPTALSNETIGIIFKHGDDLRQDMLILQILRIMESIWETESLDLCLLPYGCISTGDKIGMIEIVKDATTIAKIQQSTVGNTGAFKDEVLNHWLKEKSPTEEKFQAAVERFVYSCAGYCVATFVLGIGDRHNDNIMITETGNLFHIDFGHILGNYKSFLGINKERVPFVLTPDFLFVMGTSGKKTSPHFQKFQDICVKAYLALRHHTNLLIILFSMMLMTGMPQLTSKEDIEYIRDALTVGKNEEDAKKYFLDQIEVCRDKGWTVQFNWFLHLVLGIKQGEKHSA

mTOR = mTOR (Homo sapiens, UniProt P42345); conditions: cited from earlier work
C2β = C2β (Homo sapiens, UniProt O00750); conditions: read-out: in vitro IC50 C2β; cited from earlier work
C2β, sequence (O00750 whole entry): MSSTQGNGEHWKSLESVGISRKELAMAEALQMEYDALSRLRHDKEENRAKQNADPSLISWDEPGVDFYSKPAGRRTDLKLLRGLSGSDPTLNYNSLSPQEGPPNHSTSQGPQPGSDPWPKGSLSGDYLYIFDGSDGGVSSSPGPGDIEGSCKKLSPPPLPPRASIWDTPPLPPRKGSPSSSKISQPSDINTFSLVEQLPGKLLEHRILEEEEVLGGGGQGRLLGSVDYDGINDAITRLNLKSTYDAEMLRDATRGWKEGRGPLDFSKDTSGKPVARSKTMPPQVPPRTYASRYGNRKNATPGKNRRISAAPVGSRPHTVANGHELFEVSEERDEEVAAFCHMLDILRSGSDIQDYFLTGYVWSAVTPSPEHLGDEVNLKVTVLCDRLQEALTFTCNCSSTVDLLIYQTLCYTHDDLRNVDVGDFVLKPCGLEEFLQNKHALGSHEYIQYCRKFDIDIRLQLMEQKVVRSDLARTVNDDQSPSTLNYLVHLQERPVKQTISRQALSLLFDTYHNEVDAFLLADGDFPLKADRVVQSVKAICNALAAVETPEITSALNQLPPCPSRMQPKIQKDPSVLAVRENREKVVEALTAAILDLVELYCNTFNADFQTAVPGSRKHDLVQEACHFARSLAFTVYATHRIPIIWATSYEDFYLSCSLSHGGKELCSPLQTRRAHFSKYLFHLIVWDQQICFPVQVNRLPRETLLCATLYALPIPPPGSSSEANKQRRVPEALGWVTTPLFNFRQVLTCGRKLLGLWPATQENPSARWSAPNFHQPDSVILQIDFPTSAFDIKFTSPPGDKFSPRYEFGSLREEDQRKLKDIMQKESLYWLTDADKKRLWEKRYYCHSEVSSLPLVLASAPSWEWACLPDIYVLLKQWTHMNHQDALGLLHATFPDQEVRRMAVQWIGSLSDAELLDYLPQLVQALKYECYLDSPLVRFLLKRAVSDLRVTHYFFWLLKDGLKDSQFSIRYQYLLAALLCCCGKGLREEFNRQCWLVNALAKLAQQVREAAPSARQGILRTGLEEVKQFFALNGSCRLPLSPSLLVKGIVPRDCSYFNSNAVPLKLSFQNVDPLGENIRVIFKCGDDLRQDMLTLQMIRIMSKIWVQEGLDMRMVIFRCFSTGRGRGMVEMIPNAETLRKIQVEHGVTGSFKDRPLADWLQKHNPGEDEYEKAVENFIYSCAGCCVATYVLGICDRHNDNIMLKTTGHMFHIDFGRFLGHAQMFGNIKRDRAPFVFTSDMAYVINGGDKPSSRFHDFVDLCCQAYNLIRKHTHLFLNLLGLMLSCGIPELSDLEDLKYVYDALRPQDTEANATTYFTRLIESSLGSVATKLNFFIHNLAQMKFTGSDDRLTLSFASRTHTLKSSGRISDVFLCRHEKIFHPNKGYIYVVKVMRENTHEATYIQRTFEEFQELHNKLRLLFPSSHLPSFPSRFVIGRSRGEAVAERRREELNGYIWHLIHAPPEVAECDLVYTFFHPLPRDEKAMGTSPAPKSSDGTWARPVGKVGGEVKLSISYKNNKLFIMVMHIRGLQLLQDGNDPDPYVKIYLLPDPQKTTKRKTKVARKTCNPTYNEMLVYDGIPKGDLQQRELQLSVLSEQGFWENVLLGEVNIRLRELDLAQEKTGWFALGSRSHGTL

C2α = C2α (Homo sapiens, UniProt O00443); conditions: read-out: in vitro IC50 C2α; cited from earlier work
C2α, sequence (O00443 whole entry): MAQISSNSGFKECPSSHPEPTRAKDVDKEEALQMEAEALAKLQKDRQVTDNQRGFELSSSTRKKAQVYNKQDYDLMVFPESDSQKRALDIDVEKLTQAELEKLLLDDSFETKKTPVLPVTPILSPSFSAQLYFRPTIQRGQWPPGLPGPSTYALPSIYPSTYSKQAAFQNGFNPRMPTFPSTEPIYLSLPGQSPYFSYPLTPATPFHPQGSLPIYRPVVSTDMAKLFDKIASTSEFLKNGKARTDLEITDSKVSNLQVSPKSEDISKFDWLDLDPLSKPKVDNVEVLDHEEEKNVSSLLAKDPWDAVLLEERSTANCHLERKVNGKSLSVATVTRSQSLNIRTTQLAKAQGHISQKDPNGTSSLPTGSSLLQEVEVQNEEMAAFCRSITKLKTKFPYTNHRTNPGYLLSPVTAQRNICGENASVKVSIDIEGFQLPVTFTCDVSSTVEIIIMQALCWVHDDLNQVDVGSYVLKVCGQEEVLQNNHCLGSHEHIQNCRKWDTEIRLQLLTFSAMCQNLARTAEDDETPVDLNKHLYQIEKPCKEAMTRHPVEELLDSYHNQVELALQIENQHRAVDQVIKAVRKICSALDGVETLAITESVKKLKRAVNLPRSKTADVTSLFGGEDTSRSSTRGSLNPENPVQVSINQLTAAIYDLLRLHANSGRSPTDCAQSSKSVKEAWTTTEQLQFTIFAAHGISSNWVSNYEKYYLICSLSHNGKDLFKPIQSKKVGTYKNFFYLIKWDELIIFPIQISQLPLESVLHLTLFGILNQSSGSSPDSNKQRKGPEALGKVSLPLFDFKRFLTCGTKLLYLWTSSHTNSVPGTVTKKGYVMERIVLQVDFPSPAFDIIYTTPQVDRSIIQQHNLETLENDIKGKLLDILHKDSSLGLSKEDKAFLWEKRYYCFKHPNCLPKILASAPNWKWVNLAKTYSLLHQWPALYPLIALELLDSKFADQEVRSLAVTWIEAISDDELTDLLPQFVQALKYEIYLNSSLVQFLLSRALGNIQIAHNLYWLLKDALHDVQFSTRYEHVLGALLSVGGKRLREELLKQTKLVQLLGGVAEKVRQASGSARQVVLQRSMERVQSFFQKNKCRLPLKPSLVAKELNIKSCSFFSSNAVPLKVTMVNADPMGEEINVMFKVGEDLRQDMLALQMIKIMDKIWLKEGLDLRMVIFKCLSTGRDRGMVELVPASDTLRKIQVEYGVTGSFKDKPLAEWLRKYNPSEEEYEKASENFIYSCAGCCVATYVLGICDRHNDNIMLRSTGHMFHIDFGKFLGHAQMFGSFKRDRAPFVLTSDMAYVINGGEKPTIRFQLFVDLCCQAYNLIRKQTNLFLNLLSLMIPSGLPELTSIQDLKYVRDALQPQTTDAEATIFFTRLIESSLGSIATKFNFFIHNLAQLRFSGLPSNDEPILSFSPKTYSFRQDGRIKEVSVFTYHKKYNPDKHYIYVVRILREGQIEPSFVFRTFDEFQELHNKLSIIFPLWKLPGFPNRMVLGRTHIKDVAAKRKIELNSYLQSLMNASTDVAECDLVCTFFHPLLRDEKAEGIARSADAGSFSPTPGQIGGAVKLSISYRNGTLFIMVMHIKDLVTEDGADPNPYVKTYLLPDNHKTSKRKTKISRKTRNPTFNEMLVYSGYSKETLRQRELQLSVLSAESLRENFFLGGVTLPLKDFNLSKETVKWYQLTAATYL

vps34 = vps34 (Homo sapiens, UniProt Q8NEB9); conditions: read-out: in vitro IC50 vps34; cited from earlier work

**Q.** What does the source list for `CC(C)n1ncnc1-c1cn2c(n1)-c1ccc(O[C@@H](C)C(N)=O)cc1OCC2` [GDC0326, (S)-2-((2-(1-Isopropyl-1H-1,2,4-triazol-5-yl)-5,6-dihydrobenzo[f]imidazo [1,2-d][1,4]oxazepin-9-yl)oxy)propanamide]?
**A.** activation of the stromal compartment (CD18 immune cell staining, picrosirius red collagen deposit staining) [1]: reversed the activation of the stromal compartment; lesion area ([1]; day 17, compared to caerulein-treated KC mice that received vehicle): significant decrease of lesion area; p-Akt substrate staining ([1]; day 17, vs vehicle): absence of p-Akt Subsrate staining; IC50 (p110β): 133 nM; IC50 (p110δ): 20 nM; IC50 (p110γ): 51 nM; Ki (mTOR): 4300 nM; IC50 (C2β): 261 nM; IC50 (C2α): > 10000 nM; IC50 (vps34): 2840 nM
